Assay results taken from ChEMBL document CHEMBL3885881, “DrugMatrix”.

Species: Rattus norvegicus
Experiment: DrugMatrix - Regimen: Daily Repeat
Format: toxicity, organism-based, Sprague-Dawley
Design: regimen Daily Repeat, gender Male, age 6-8 weeks
Settings: in vivo, po, route oral GAVAGE, vehicle 100 % WATER; for ABSOLUTE BASOPHIL / ABSOLUTE EOSINOPHIL / ABSOLUTE LYMPHOCYTE / ABSOLUTE MONOCYTE / ABSOLUTE SEGMENTED NEUTROPHIL / BASOPHIL / EOSINOPHIL / ERYTHROCYTE COUNT / HEMATOCRIT / HEMOGLOBIN / LEUKOCYTE COUNT / LYMPHOCYTE / MEAN CORPUSCULAR HEMOGLOBIN / MEAN CORPUSCULAR HEMOGLOBIN CONCENTRATION / MEAN CORPUSCULAR VOLUME / MONOCYTE / NEUTROPHIL / NUCLEATED RED BLOOD CELLS / PLATELET COUNT: tissue Blood; for ALANINE AMINOTRANSFERASE / ALBUMIN / ALKALINE PHOSPHATASE / ASPARTATE AMINOTRANSFERASE / BLOOD UREA NITROGEN / CARBON DIOXIDE / CHLORIDE / CHOLESTEROL / CREATINE PHOSPHOKINASE / CREATININE / GLUCOSE / LACTATE DEHYDROGENASE / LIPASE / PHOSPHORUS / POTASSIUM / SODIUM / TOTAL BILIRUBIN / TOTAL PROTEIN / URIC ACID: tissue Plasma
[1] = 8 mg/kg, 72 h, dose level Low, time 3 day
[2] = 8 mg/kg, 120 h, dose level Low, time 5 day
[3] = 78 mg/kg, 72 h, dose level High, time 3 day
[4] = 78 mg/kg, 120 h, dose level High, time 5 day

NNc1ccccc1 [PHENYLHYDRAZINE]
ABSOLUTE BASOPHIL [1]: 0 CELLS/uL | ABSOLUTE EOSINOPHIL [1]: 0 CELLS/uL | ABSOLUTE LYMPHOCYTE [1]: 13454.67 CELLS/uL | ABSOLUTE MONOCYTE [1]: 235.67 CELLS/uL | ABSOLUTE SEGMENTED NEUTROPHIL [1]: 1043 CELLS/uL | BASOPHIL [1]: 0% | EOSINOPHIL [1]: 0% | ERYTHROCYTE COUNT [1]: 5.23 x10E6/uL | HEMATOCRIT [1]: 34.17% | HEMOGLOBIN [1]: 13.63 G/DL | LEUKOCYTE COUNT [1]: 14.73 x10E3/uL | LYMPHOCYTE [1]: 91.33% | MEAN CORPUSCULAR HEMOGLOBIN [1]: 26.1 pg | MEAN CORPUSCULAR HEMOGLOBIN CONCENTRATION [1]: 39.93 G/DL | MEAN CORPUSCULAR VOLUME [1]: 65.33 fL | MONOCYTE [1]: 1.33% | NEUTROPHIL [1]: 7.33% | NUCLEATED RED BLOOD CELLS [1]: 0 /100WBC | PLATELET COUNT [1]: 994.33 x10E3/uL | ALANINE AMINOTRANSFERASE [1]: 53 u/L | ALBUMIN [1]: 4.17 G/DL | ALKALINE PHOSPHATASE [1]: 388 u/L | ASPARTATE AMINOTRANSFERASE [1]: 115 u/L | BLOOD UREA NITROGEN [1]: 15.33 mg/dL | CARBON DIOXIDE [1]: 21.33 mmol/L | CHLORIDE [1]: 102.67 MEQ/L | CHOLESTEROL [1]: 102.33 mg/dL | CREATINE PHOSPHOKINASE [1]: 1080.67 u/L | CREATININE [1]: 0.13 mg/dL | GLUCOSE [1]: 177 mg/dL | LACTATE DEHYDROGENASE [1]: 308.67 u/L | LIPASE [1]: 9.33 u/L | PHOSPHORUS [1]: 14.53 mg/dL | POTASSIUM [1]: 6.82 MEQ/L | SODIUM [1]: 146.1 MEQ/L | TOTAL BILIRUBIN [1]: 0.17 mg/dL | TOTAL PROTEIN [1]: 5.87 G/DL | URIC ACID [1]: 2.1 mg/dL | ABSOLUTE BASOPHIL [2]: 0 CELLS/uL | ABSOLUTE EOSINOPHIL [2]: 0 CELLS/uL | ABSOLUTE LYMPHOCYTE [2]: 16277.67 CELLS/uL | ABSOLUTE MONOCYTE [2]: 115 CELLS/uL | ABSOLUTE SEGMENTED NEUTROPHIL [2]: 974 CELLS/uL | BASOPHIL [2]: 0% | EOSINOPHIL [2]: 0% | ERYTHROCYTE COUNT [2]: 5.53 x10E6/uL | HEMATOCRIT [2]: 35.4% | HEMOGLOBIN [2]: 14.27 G/DL | LEUKOCYTE COUNT [2]: 17.37 x10E3/uL | LYMPHOCYTE [2]: 93.67% | MEAN CORPUSCULAR HEMOGLOBIN [2]: 25.8 pg | MEAN CORPUSCULAR HEMOGLOBIN CONCENTRATION [2]: 40.3 G/DL | MEAN CORPUSCULAR VOLUME [2]: 64.07 fL | MONOCYTE [2]: 0.67% | NEUTROPHIL [2]: 5.67% | NUCLEATED RED BLOOD CELLS [2]: 0 /100WBC | PLATELET COUNT [2]: 1250.67 x10E3/uL | ALANINE AMINOTRANSFERASE [2]: 46.67 u/L | ALBUMIN [2]: 4.1 G/DL | ALKALINE PHOSPHATASE [2]: 440.67 u/L | ASPARTATE AMINOTRANSFERASE [2]: 81.67 u/L | BLOOD UREA NITROGEN [2]: 15.33 mg/dL | CARBON DIOXIDE [2]: 26.33 mmol/L | CHLORIDE [2]: 102 MEQ/L | CHOLESTEROL [2]: 63 mg/dL | CREATINE PHOSPHOKINASE [2]: 289 u/L | CREATININE [2]: 0.12 mg/dL | GLUCOSE [2]: 147.67 mg/dL | LACTATE DEHYDROGENASE [2]: 310.67 u/L | LIPASE [2]: 9 u/L | PHOSPHORUS [2]: 13.93 mg/dL | POTASSIUM [2]: 6.84 MEQ/L | SODIUM [2]: 144.13 MEQ/L | TOTAL BILIRUBIN [2]: 0.17 mg/dL | TOTAL PROTEIN [2]: 5.83 G/DL | URIC ACID [2]: 1.23 mg/dL | ABSOLUTE BASOPHIL [3]: 0 CELLS/uL | ABSOLUTE EOSINOPHIL [3]: 0 CELLS/uL | ABSOLUTE LYMPHOCYTE [3]: 24784.33 CELLS/uL | ABSOLUTE MONOCYTE [3]: 97 CELLS/uL | ABSOLUTE SEGMENTED NEUTROPHIL [3]: 9152 CELLS/uL | BASOPHIL [3]: 0% | EOSINOPHIL [3]: 0% | ERYTHROCYTE COUNT [3]: 3.43 x10E6/uL | HEMATOCRIT [3]: 24.43% | LEUKOCYTE COUNT [3]: 34.03 x10E3/uL | LYMPHOCYTE [3]: 73% | MEAN CORPUSCULAR VOLUME [3]: 71.33 fL | MONOCYTE [3]: 0.33% | NEUTROPHIL [3]: 26.67% | NUCLEATED RED BLOOD CELLS [3]: 21.67 /100WBC | PLATELET COUNT [3]: 1624.67 x10E3/uL | ALANINE AMINOTRANSFERASE [3]: 46 u/L | ALBUMIN [3]: 4.27 G/DL | ALKALINE PHOSPHATASE [3]: 266 u/L | ASPARTATE AMINOTRANSFERASE [3]: 107.67 u/L | BLOOD UREA NITROGEN [3]: 15 mg/dL | CARBON DIOXIDE [3]: 23.67 mmol/L | CHLORIDE [3]: 102.33 MEQ/L | CHOLESTEROL [3]: 53.33 mg/dL | CREATINE PHOSPHOKINASE [3]: 217.33 u/L | CREATININE [3]: 0.11 mg/dL | GLUCOSE [3]: 182.33 mg/dL | LACTATE DEHYDROGENASE [3]: 512.67 u/L | LIPASE [3]: 9.33 u/L | PHOSPHORUS [3]: 12.13 mg/dL | POTASSIUM [3]: 7.33 MEQ/L | SODIUM [3]: 141.1 MEQ/L | TOTAL BILIRUBIN [3]: 0.9 mg/dL | TOTAL PROTEIN [3]: 5.7 G/DL | URIC ACID [3]: 2 mg/dL | ABSOLUTE BASOPHIL [4]: 0 CELLS/uL | ABSOLUTE EOSINOPHIL [4]: 0 CELLS/uL | ABSOLUTE LYMPHOCYTE [4]: 25256 CELLS/uL | ABSOLUTE MONOCYTE [4]: 656 CELLS/uL | ABSOLUTE SEGMENTED NEUTROPHIL [4]: 6888 CELLS/uL | BASOPHIL [4]: 0% | EOSINOPHIL [4]: 0% | ERYTHROCYTE COUNT [4]: 2.84 x10E6/uL | HEMATOCRIT [4]: 25.3% | LEUKOCYTE COUNT [4]: 32.8 x10E3/uL | LYMPHOCYTE [4]: 77% | MEAN CORPUSCULAR VOLUME [4]: 89.1 fL | MONOCYTE [4]: 2% | NEUTROPHIL [4]: 21% | NUCLEATED RED BLOOD CELLS [4]: 31 /100WBC | PLATELET COUNT [4]: 1632 x10E3/uL | ALANINE AMINOTRANSFERASE [4]: 84 u/L | ALBUMIN [4]: 4.8 G/DL | ALKALINE PHOSPHATASE [4]: 311 u/L | ASPARTATE AMINOTRANSFERASE [4]: 313 u/L | BLOOD UREA NITROGEN [4]: 28 mg/dL | CARBON DIOXIDE [4]: 17 mmol/L | CHLORIDE [4]: 106 MEQ/L | CHOLESTEROL [4]: 81 mg/dL | CREATINE PHOSPHOKINASE [4]: 196 u/L | CREATININE [4]: 0.1 mg/dL | GLUCOSE [4]: 129 mg/dL | LACTATE DEHYDROGENASE [4]: 1486 u/L | LIPASE [4]: 10 u/L | PHOSPHORUS [4]: 11.1 mg/dL | POTASSIUM [4]: 6.59 MEQ/L | SODIUM [4]: 143.3 MEQ/L | TOTAL BILIRUBIN [4]: 2.2 mg/dL | TOTAL PROTEIN [4]: 6.2 G/DL | URIC ACID [4]: 2 mg/dL
